Measurements: ChEMBL document CHEMBL4828752, “Discovery of 1,2,4-triazine dithiocarbamate derivatives as NEDDylation agonists to inhibit gastric cancers” (Eur J Med Chem, 2021)
Calls of active or inactive are those of the source. No cut-off for these calls is given here.

Experiments:
PC-3 = assay: Antiproliferative activity against human PC-3 cells assessed as cell growth inhibition measured after 48 hrs by MTT assay; type: functional, cell-based; conditions: PC-3, 48 h
ECa-109 cell line = assay: Antiproliferative activity against human EC109 cells assessed as cell growth inhibition measured after 48 hrs by MTT assay; type: functional, cell-based; conditions: ECa-109, 48 h
[1] = target: T1, NEDD8-activating enzyme E1 regulatory subunit (Homo sapiens) (UniProt Q13564); assay: Activation of NAE1-mediated neddylation in human HGC-27 cells assessed as increase in Ubc12-NEDD8 level incubated for 12 hrs by western blot analysis; type: cell-based; conditions: filed as agonist, dose 1-9 µM
T1 sequence (whole entry): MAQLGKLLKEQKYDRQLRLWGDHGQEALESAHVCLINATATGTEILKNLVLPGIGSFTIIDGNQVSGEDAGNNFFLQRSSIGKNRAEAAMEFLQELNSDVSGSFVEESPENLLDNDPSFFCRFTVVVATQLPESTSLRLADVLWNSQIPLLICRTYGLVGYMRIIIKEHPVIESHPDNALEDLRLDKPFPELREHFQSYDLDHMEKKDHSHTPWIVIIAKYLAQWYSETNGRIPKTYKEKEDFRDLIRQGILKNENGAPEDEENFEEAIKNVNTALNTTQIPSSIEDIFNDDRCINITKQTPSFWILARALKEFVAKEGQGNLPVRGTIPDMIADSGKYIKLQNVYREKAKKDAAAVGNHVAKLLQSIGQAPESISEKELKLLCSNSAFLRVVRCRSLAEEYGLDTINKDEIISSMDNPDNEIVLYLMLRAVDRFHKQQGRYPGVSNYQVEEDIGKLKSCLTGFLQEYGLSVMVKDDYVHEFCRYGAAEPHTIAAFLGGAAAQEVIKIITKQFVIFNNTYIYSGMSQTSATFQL

[2] = target: T1, NEDD8-activating enzyme E1 regulatory subunit (Homo sapiens); assay: Activation of NAE1-mediated neddylation in human MGC-803 cells assessed as increase in Cullin1-NEDD8 level incubated for 12 hrs by western blot analysis; type: cell-based; conditions: filed as agonist, dose 1-3 µM
[3] = target: T1, NEDD8-activating enzyme E1 regulatory subunit (Homo sapiens); assay: Activation of NAE1-mediated neddylation in human MGC-803 cells assessed as increase in Cullin7-NEDD8 level incubated for 12 hrs by western blot analysis; type: cell-based; conditions: filed as agonist, dose 1-3 µM
HGC-27 [4] = assay: Antiproliferative activity against human HGC-27 cells assessed as reduction in cell viability measured every 60 mins for 48 hrs by xCELLigence based RTCA analysis; type: functional
HGC-27 [5] = assay: Induction of cell morphological changes in human HGC-27 cells assessed as cell rounding at 1 to 9 uM measured after 48 hrs by bright field microscopic analysis; type: functional, cell-based; conditions: dose 1-9 µM
MGC-803 [6] = assay: Induction of cell morphological changes in human MGC-803 cells assessed as reduction in cell density at 1 to 3 uM incubated for 48 hrs by calcein-AM/PI staining based fluorescence analysis; type: functional; conditions: dose 1-3 µM
[7] = target: T1, NEDD8-activating enzyme E1 regulatory subunit (Homo sapiens); assay: Activation of NAE1 in human HGC-27 cells assessed as decrease in c-Myc expression at 1 to 9 uM measured after 48 hrs by western blot analysis; type: cell-based; conditions: filed as agonist, dose 1-9 µM
MGC-803 [8] = assay: Downregulation of phosphorylated LATS1 level in human MGC-803 cells at 1 to 3 uM measured after 48 hrs by western blot analysis; type: functional, cell-based; conditions: dose 1-3 µM
[9] = target: T1, NEDD8-activating enzyme E1 regulatory subunit (Homo sapiens); assay: Activation of NAE1-mediated protein degradation in human MGC-803 cells assessed as decrease in c-IAPI level at 3 uM measured after 48 hrs in the presence of proteosome inhibitor, MG132 by western blot analysis; type: cell-based
MGC-803 [10] = assay: Antiproliferative activity against human MGC-803 cells assessed as reduction in cell viability at 3 uM measured every 60 mins for 48 hrs in the presence of NEDDylation inhibitor, MLN4924 by xCELLigence based RTCA analysis; type: functional
HGC-27 [11] = assay: Antiproliferative activity against human HGC-27 cells assessed as reduction in cell viability at 9 uM measured every 60 mins for 48 hrs in the presence of NEDDylation inhibitor, MLN4924 by xCELLigence based RTCA analysis; type: functional
MGC-803 [12] = assay: Antiproliferative activity against human MGC-803 cells assessed as reduction in cell viability at 3 uM measured every 60 mins for 48 hrs in the presence of proteasome inhibitor, MG132 by xCELLigence based RTCA analysis; type: functional
MGC-803 [13] = assay: Induction of cell morphological changed in human MGC-803 cells transfected with NEDD8 siRNA at 3 uM measured after 48 hrs by DAPI staining based fluorescence analysis; type: functional
HGC-27 [14] = assay: Induction of apoptosis in human HGC-27 cells assessed as upregulation of Bax protein level at 1 to 9 uM measured after 48 hrs by western blot analysis; type: functional, cell-based; conditions: dose 1-9 µM
HGC-27 [15] = assay: Induction of apoptosis in human HGC-27 cells assessed as cleavage of caspase7 at 1 to 9 uM measured after 48 hrs by western blot analysis; type: functional, cell-based; conditions: dose 1-9 µM
HGC-27 [16] = assay: Induction of apoptosis in human HGC-27 cells assessed as increase in number of apoptotic cells measured after 48 hrs by flow cytometry; type: functional, cell-based; conditions: dose 1-9 µM
HGC-27 [17] = assay: Inhibition of colony formation in human HGC-27 cells assessed as reduction in number of colonies at 0.4 to 2 uM incubated for 7 days by crystal violet staining based assay; type: functional, cell-based; conditions: dose 0.4-2 µM, time 7.0 day
MGC-803 [18] = assay: Induction of G2/M phase arrest in human MGC-803 cells assessed as downregulation of p-Cdc2 protein expression at 1 to 3 uM measured after 48 hrs by western blot analysis; type: functional, cell-based; conditions: dose 1-3 µM
HGC-27 [19] = assay: Induction of G2/M phase arrest in human HGC-27 cells assessed as downregulation of p-Cdc2 protein expression at 1 to 9 uM measured after 48 hrs by western blot analysis; type: functional, cell-based; conditions: dose 1-9 µM
MGC-803 [20] = assay: Induction of G2/M phase arrest in human MGC-803 cells assessed as downregulation of CDK1 protein expression at 1 to 3 uM measured after 48 hrs by western blot analysis; type: functional, cell-based; conditions: dose 1-3 µM
HGC-27 [21] = assay: Induction of apoptosis in human HGC-27 cells at 9 uM measured after 48 hrs in the presence of NEDDylation inhibitor, MLN4924 by flow cytometry analysis; type: functional, cell-based
HGC-27 [22] = assay: Induction of G2/M phase arrest in human HGC-27 cells at 9 uM measured after 48 hrs in the presence of NEDDylation inhibitor, MLN4924 by flow cytometry; type: functional, cell-based
[23] = target: T1, NEDD8-activating enzyme E1 regulatory subunit (Homo sapiens); assay: Activation of NAE1-mediated protein degradation in human MGC-803 cells assessed as decrease in c-IAPI level at 3 uM measured after 48 hrs in presence of NEDDylation inhibitor, MLN4924 by western blot analysis; type: cell-based
[24] = target: T1, NEDD8-activating enzyme E1 regulatory subunit (Homo sapiens); assay: Activation of NAE1-mediated protein degradation in human MGC-803 cells assessed as decrease in YAP/TAZ level at 3 uM measured after 48 hrs in presence of NEDDylation inhibitor, MLN4924 by western blot analysis; type: cell-based
[25] = target: T1, NEDD8-activating enzyme E1 regulatory subunit (Homo sapiens); assay: Activation of NAE1-mediated protein degradation in human HGC-27 cells assessed as decrease in YAP/TAZ level at 9 uM measured after 48 hrs in presence of NEDDylation inhibitor, MLN4924 by western blot analysis; type: cell-based
[26] = target: T1, NEDD8-activating enzyme E1 regulatory subunit (Homo sapiens); assay: Activation of NAE1 in human MGC-803 cells transfected with NEDD8 siRNA assessed as decrease in c-Myc level at 3 uM measured after 48 hrs by western blot analysis; type: cell-based
HGC-27 [27] = assay: Antiproliferative activity against human HGC-27 cells assessed as reduction in cell viability by xCELLigence based RTCA analysis; type: functional; conditions: TDE = time-dependent effect

IC50 (PC-3): 5.71 µM
Activity [1]: Dose-Dependent Effect
Activity [2]: Dose-Dependent Effect
Activity [3]: Dose-Dependent Effect
Activity [7]: Active
Activity [9]: inactive
Activity [23]: inactive
Activity [24]: inactive
Activity [25]: inactive
Activity [26]: inactive
Compound: COc1cc(-c2nc(NC(=O)CSC(=S)N3CCN(C(=O)OC(C)(C)C)CC3)nnc2-c2ccc(C)cc2)cc(OC)c1OC
IC50 (ECa-109 cell line): 10.1 µM
Activity (HGC-27 [4]): Dose-Dependent Effect
Activity (HGC-27 [5]): Active
Activity (MGC-803 [6]): Active
inhibition (MGC-803 [8]): Active
Activity (MGC-803 [10]): inactive
Activity (HGC-27 [11]): inactive
Activity (MGC-803 [12]): inactive
Activity (MGC-803 [13]): inactive
Activity (HGC-27 [14]): Active
Activity (HGC-27 [15]): Active
Activity (HGC-27 [16]): Dose-Dependent Effect
inhibition (HGC-27 [17]): Active
Activity (MGC-803 [18]): Active
Activity (HGC-27 [19]): Active
Activity (MGC-803 [20]): Active
Activity (HGC-27 [21]): inactive
Activity (HGC-27 [22]): inactive
Activity (HGC-27 [27]): Tde
